Assay results published in patent US20110257130A1 (priority 2008, published 2011).
Like-named read-outs stand apart in the source and are kept apart here.

How the values were obtained:
[1] = target: Angiotensin Converting Enzyme (ACE) (UniProt P12822); experiment: fluorimetric ACE assay with HHL substrate, 96-well format; type: biochemical; conditions: for reduction of ACE activity (formation of L-histidyl-L-leucine): compound incubated with enzyme at 37° C. for 30 min
Experimental: To determine whether the compounds of the presently-disclosed subject matter were capable of reducing the enzymatic activity of Angiotensin Converting Enzyme (ACE), an ACE assay was carried out according to the standard protocols (see, e.g., Schwager, et al. A high-throughput fluorimetric assay for angiotensin I-converting enzyme, Nature Protocols, 2006; 1 (4): 1961-1964, which is incorporated herein by this reference). The ACE assay involved a fluorimetric procedure in which the substrate hippury-L-histidyl-L-leucine (HHL) was used, and the fluorescent adduct of the enzyme-catalyzed product L-histidyl-L-leucine was quantified fluorimetrically. […] The results from the assay were analyzed in a 96-well plate reader with each concentration measured in triplicate.
Briefly, in a total of 250 μL assay volume, 10 μL of ACE enzyme (Sigma Chemical Co., St. Louis, Mo.) and 10 μL of either 1-(6,8-dimercaptooctanyl)pyrrolidine-2-carboxylic acid or prolyl lipoic acid (Formula (III) was added. Both compounds were incubated with enzyme at 37° C. for 30 min. The ACE substrate HHL, 6 μL in buffer, was then added to each well followed by incubation at 45° C. for 30 min. 170 μL of 0.3M sodium hydroxide solution was added to above solution followed by the addition of phalaldehyde solution in methanol. The mixture was then allowed to shake for 5 min. This step was followed by the addition of 32 μL of 2N hydrochloric acid to each well and subsequent measurement of the fluorescence at an excitation wavelength of 360 nm and an emission wavelength of 480 nm. Three controls were used to compare the readings, with the controls including wells without the enzyme, wells without the compounds, and wells without the HHL enzymatic substrate.
To further examine the IC50 value in relation to the absolute amounts of thiol groups of the 1-(6,8-dimercaptooctanyl)pyrrolidine-2-carboxylic acid compound, however, the amount of thiol groups in the reaction mixtures was also measured according to Ellman's method (see, e.g. Simpson R J, Estimation of free thiols and disulfide bonds using Ellman's reagent, CSHL Press, Cold Spring Harbor, N.Y., 2003; and, Ellman G L, Tissue sulfhydral groups, Arch. Biochem. Biophys., 1959; 82: 70-77, each of which are incorporated herein by this reference). […] The TNB^2− can then be quantified in a spectrophotometer by measuring the absorbance of visible light at 412 nm, using an extinction coefficient of 14,150M^−1 cm^−1 for dilute buffer solutions, and a coefficient of 13,700 M^−1 cm^−1 for high salt concentrations, such as 6 M guanidinium hydrochloride or 8 M urea. […] The absorbance was measured at 412 nm. […]

[2] = test system: pre-constricted rat aortic segments; experiment: vasodilation of phenylephrine pre-constricted aortic rings in myograph; set-up: species or system male Sprague-Dawley Rats; conditions: for relaxation of pre-constricted rat aortic segments: phenylephrine 0.1 μM pre-constriction, after 4-hour incubation with 44 mM glucose
Experimental: To determine the effect of lipoic acid and prolyl lipoic acid (Formula (III)) on vasodilation, aortas from male Sprague-Dawley Rats (n=2) were utilized. Briefly, each animal was first sacrificed and their aortas were removed. The aortas were then incubated in phosphate-buffered-saline (PBS) containing 44 mM glucose for 4 hours. Eight 5-mm ring segments of thoracic aorta were then suspended in a myograph chamber filled with a Krebs buffer of the following composition: NaCl, 118.3; KCl, 4.69; CaCl2, 1.87; MgSO4, 1.20; K2HPO4, 1.03; NaHCO3 25.0; and glucose 11.1; all values in mM, pH 7.40. During the following hour, the resting tension was increased to optimize constrictions due to exposure to KCl. The vessel segments were then pre-constricted with phenylephrine (PE; 0.1 μM) and were subjected to prolyl lipoic acid (Formula (III)) or lipoic acid. Vasodilation in the rat aortic rings in response to L-prolyl lipoic acid (1×10^−4 M) or lipoic acid (1×10^−4 M) (both dissolved in aqueous media) was then measured after a 4-hour incubation with glucose (44 mM). Endothelial cell function in the aortic rings was also measured by pre-constricting the aortic rings to the EC50 of phenylephrine and then subjecting the rings to a maximum acetylcholine dose (10^−5M).

[3] = test system: spontaneously hypertensive stroke prone rats (SHRSP); experiment: endothelial function by myography of aortic segments after 6 weeks of treatment; type: in vivo, rat; conditions: 50 mg/kg daily IP, pre-contraction 0.3 μM phenylephrine
Experimental: (§1) To further examine the effects of prolyl lipoic acid (Formula (III)) on hypertension, the effect of prolyl lipoic acid was examined in spontaneously hypertensive rats over a longer time period. Briefly, spontaneously hypertensive rats (SHRSP rats, 10 weeks of age, n=10/group) were randomized to placebo or prolyl lipoic acid (50 mg/kg) groups for a duration of 6 weeks. The animals were housed 2 to a cage and were given Harlan-Teklad Laboratory Rodent Diet ad libitum (Harlan Laboratories, Indianapolis, Ind.). Prolyl lipoic acid or saline placebo was administered to the rats by daily intraperitoneal (IP) dosing.
Following the completion of the six week period, the animals were euthanized at week 17 by lethal pentobarbital injection and tissues were removed from the animal. Upon removal of the tissues, endothelial function was assessed. It is known that endothelial function can refer to the unimpaired production of or availability of NO and/or a balance in the relative contribution of endothelium-derived relaxing and contracting factors (such as ET-1, angiotensin, and oxidants). […] As such, once the tissues were removed from the animals, endothelial cell function was assessed in the experimental groups by myography as percent-relaxation to acetylcholine or sodium nitroprusside subsequent to pre-contraction with 0.3 μM phenylephrine.

[4] = test system: spontaneously hypertensive stroke prone rats (SHRSP); experiment: blood pressure by intra-arterial catheter / radio-telemetry in hypertension model; type: in vivo, rat
From the text: To determine the effect of prolyl lipoic acid (Formula (III)) in an animal model of hypertension, spontaneously hypertensive stroke prone rats (SHRSP) were first procured from Charles River at the age of 6 weeks (Charles River Laboratories, Wilmington, Mass., U.S.A.). After a period of acclimatization for 4 weeks, the rats were then implanted with intra-arterial catheters in the abdominal aorta along with a radio-telemetry monitoring device to assess systolic blood pressure. Briefly, to implant the radio-telemetry devices, the operative procedure involved anesthetizing the animals with 375 mg/kg of 2,2,2-tribromoethanol (Sigma Chemical Co., St. Louis, Mo.). An incision was then made in the abdomen and the aorta was exposed. A 0.4 mm catheter attached to a combination pressure transducer, transmitter, and battery, all encapsulated in a implantable micro-miniature electronic monitor (PA-C20, Data Sciences International, St. Paul, Minn.), was then inserted.
Following implantation of the radio-telemetry devices, the animals were allowed to recover and the aortic pressure of each animal was monitored continuously. Once the animals sufficiently recovered, the rats then received 50 mg/kg of prolyl lipoic acid, dissolved in aqueous media, in a single dose. The blood pressures were then measured over a period of 12 hours and compared to the previous 12 hour period. […]
During the 6 week experimental period, blood pressure measurements were performed in a sub-group of 4 animals randomized to prolyl lipoic acid by intra-arterial catheter placement in the infra-renal aorta and acute administration of the prolyl lipoic acid prior to administration of drug. Additionally, four SHRSP rats (12 weeks old) were implanted with radio-telemetry transmitters (DataSciences Inc., St. Paul, Minn.) into their abdominal aortas and blood pressure was measured using the DSI system (DataSciences Inc.). In these later experiments, blood pressure was recorded continuously over 24-hour periods and reported as the change in blood pressure in the 12-hour period following the administration of the agent.

[5] = test system: inflammatory genes (ICAM1, IL-6, IL-1β, MCP1, TGF-β1, VCAM1, TNF-α); experiment: inflammatory gene expression (mRNA transcript levels) in tissues after 6 weeks of treatment; type: in vivo, rat; conditions: 50 mg/kg daily IP
Experimental: as §1
Furthermore, inflammatory gene expression was assessed in the aorta, heart, brain and kidney by probing for mRNA transcript levels of the various inflammatory genes. Aortic and cardiac collagen synthesis was also assessed by Picrosirius Red staining and Massom-Trichrome staining and quantified by an automated thresholding program.

[6] = test system: spontaneously hypertensive stroke prone rats (SHRSP); experiment: histology of organ sections (H&E wall thickness, CD68 staining) after 6 weeks of treatment; type: in vivo, rat; conditions: 50 mg/kg daily IP
Experimental: as §1
Additionally, four to eight sections of each organ were stained with CD68 or H&E for 10 animals (5 in each group) and images were obtained at 200× by bright-field microscopy. MetaMorph software was used for automated thresholding. The percentage of thresholded area of the picture was recorded and reported. Additionally, about 12 organ sections per rat were prepared for 10 of the rats (5 in each group). These sections were 5 microns in size and were stained with hematoxylin and eosin (H&E). Images were obtained at 40× (using bright-field microscopy and analyzed using MetaMorph software. For each image, the external elastic lamina of the aorta was traced using a drawing tool, and this area was logged. The luminal area was also measured. Thus, the tunica intima and tunica media were included in these measurements, not tunica adventitia. The wall thickness was calculated by subtracting the luminal area from the wall area.

Sequence of Angiotensin Converting Enzyme (ACE) (P12822 whole entry): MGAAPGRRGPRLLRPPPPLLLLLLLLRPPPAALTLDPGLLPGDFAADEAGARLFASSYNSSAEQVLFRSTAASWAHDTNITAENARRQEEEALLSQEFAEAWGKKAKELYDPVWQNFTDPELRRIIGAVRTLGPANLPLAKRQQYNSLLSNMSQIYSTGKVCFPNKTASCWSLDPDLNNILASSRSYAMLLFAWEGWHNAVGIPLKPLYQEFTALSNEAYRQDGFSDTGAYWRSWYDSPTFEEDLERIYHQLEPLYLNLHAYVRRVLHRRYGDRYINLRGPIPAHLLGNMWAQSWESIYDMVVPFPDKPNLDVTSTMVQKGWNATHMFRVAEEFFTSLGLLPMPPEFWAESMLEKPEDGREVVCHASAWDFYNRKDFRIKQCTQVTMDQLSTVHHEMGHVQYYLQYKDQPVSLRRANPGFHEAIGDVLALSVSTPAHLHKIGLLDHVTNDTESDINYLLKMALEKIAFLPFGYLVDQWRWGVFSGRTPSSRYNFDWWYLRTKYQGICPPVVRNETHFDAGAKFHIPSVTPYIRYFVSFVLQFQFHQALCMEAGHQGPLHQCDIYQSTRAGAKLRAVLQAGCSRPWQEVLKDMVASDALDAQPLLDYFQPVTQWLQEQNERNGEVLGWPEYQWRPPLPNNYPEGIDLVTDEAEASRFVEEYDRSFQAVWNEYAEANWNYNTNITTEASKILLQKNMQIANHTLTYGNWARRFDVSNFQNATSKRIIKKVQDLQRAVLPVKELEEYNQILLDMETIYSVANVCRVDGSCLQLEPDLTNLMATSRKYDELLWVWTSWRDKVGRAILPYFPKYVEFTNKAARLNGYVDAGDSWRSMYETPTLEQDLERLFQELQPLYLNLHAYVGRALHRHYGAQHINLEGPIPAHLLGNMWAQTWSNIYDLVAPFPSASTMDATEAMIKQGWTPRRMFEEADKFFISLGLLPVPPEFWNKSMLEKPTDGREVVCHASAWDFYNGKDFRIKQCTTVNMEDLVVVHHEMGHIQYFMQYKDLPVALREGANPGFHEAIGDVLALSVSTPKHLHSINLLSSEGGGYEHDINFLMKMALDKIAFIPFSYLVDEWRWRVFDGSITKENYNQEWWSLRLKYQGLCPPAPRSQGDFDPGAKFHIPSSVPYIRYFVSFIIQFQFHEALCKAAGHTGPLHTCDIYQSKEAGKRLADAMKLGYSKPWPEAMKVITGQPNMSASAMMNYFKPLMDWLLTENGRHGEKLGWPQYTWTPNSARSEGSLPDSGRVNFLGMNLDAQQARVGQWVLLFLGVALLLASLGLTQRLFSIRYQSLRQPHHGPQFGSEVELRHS

## O=C(O)C1CCCN1C(=O)CCCCC(S)CCS (stereo not drawn)
[1]
  reduction of ACE activity (formation of L-histidyl-L-leucine): effectively reduce ACE activity
[1]; corrected for thiol content by Ellman's method, read-out: IC50 value recalculated after thiol quantification
  IC50: 6.6 µM
[1]; from plot of fluorescence counts against concentration (FIG. 13), read-out: IC50 value, initially found
  IC50: ~29 µM

## O=C(O)CCCCC1CCSS1 (stereo not drawn) [lipoic acid, alpha lipoic acid, reference compound]
[2]; 1×10^−4 M
  relaxation of pre-constricted rat aortic segments: relaxed pre-constricted rat aortic segments

## O=C(O)C1CCCN1C(=O)CCCCC1CCSS1 [prolyl lipoic acid, L-prolyl lipoic acid]
[3]
  endothelial function (relaxation to acetylcholine or sodium nitroprusside): improved endothelial function
[4]; 50 mg/kg single dose, 12 hours after versus previous 12 hour period
  blood pressure after a single dose: significantly reduced blood pressure
[4]; 50 mg/kg versus captopril 100 mg/kg (FIG. 20)
  effects on blood pressure relative to captopril: comparable to the angiotensin converting enzyme inhibitor, captopril
[4]; 50 mg/kg, SHRSP rats, FIGS. 18-19
  blood pressure, acute administration: acutely lowered blood pressure
[2]; 1×10^−4 M
  relaxation of pre-constricted rat aortic segments: relaxed pre-constricted rat aortic segments
[2]; 1×10^−4 M, same aortic ring test (FIG. 15)
  relaxation as compared to lipoic acid: increase in relaxation as compared to lipoic acid
[2]; rings pre-constricted to EC50 of phenylephrine, acetylcholine 10^−5M
  endothelial function in aortic rings (vasodilation following acetylcholine): improve endothelial function
[5]; aorta
  inflammatory gene expression in aorta: markedly reduced inflammatory gene expression
[5]; brain
  ICAM1 expression in brain: some reductions in expression
  IL-6 expression in brain: some reductions in expression
[5]; brain, compared with other tissues
  reduction in inflammatory gene expression in brain: not as pronounced
[5]; heart
  inflammatory gene expression in heart: markedly reduced inflammatory gene expression
[5]; kidney
  inflammatory gene expression in kidney: markedly reduced inflammatory gene expression
[6]
  CD68 expression in the brain: without affecting CD68 expression
  CD68 expression in the kidneys: without affecting CD68 expression
  CD68 expression in the myocardium: without affecting CD68 expression
  inflammatory cell recruitment to the heart: favorable effects
  inflammatory cell recruitment to the kidney: favorable effects
[6]; H&E sections
  aortic medial hypertrophy: effects in reducing aortic medial hypertrophy
[1]
  reduction of ACE activity (formation of L-histidyl-L-leucine): effectively reduce ACE activity
